Data reported in ChEMBL document CHEMBL3124884, “Leporizines A-C: epithiodiketopiperazines isolated from an Aspergillus species” (J Nat Prod, 2013).
Calls of active or inactive are those of the source. No cut-off for these calls is given here.

Experiments:
[1] = tested on: Cystic fibrosis transmembrane conductance regulator (Homo sapiens), P13569 [F508del]; experiment: Activity at CFTR F508del mutant (unknown origin) expressed in Fischer rat thyroid epithelial cells co-expressing YFP-H148Q/I152L assessed as forskolin/PG-01-induced increase in conductance reversible effect at >5 uM after 16 to 20 mins by conductance corrector assay; assay type: cell-based; settings: Epithelial cell
[2] = tested on: Cystic fibrosis transmembrane conductance regulator (Homo sapiens), P13569 [F508del]; experiment: Activity at CFTR F508del mutant (unknown origin) expressed in Fischer rat thyroid epithelial cells co-expressing YFP-H148Q/I152L assessed as forskolin/PG-01-induced increase in conductance reversible effect at 10 to 20 uM after 16 to 20 mins by conductance corrector assay in presence of CFInh-172; assay type: cell-based; settings: Epithelial cell
HepG2 = experiment: Cytotoxicity against human HepG2 cells; assay type: cell-based
[3] = tested on: Cystic fibrosis transmembrane conductance regulator (Homo sapiens), P13569 [F508del]; experiment: Activity at CFTR F508del mutant (unknown origin) expressed in Fischer rat thyroid epithelial cells co-expressing YFP-H148Q/I152L assessed as loss of baseline transepithelial resistance at >5 uM after 16 to 20 mins by conductance corrector assay; assay type: cell-based; settings: Epithelial cell
[4] = tested on: Cystic fibrosis transmembrane conductance regulator (Homo sapiens), P13569 [F508del]; experiment: Activity at CFTR F508del mutant (unknown origin) expressed in Fischer rat thyroid epithelial cells co-expressing YFP-H148Q/I152L assessed as forskolin/PG-01-induced increase in conductance reversible effect at <= 5 uM after 16 to 20 hrs by conductance corrector assay; settings: Epithelial cell
[5] = tested on: Cystic fibrosis transmembrane conductance regulator (Homo sapiens), P13569 [F508del]; experiment: Activity at CFTR F508del mutant (unknown origin) expressed in Fischer rat thyroid epithelial cells co-expressing YFP-H148Q/I152L assessed as loss of baseline transepithelial resistance at 2.5 to 20 uM after 16 to 20 mins by conductance corrector assay; assay type: cell-based; settings: Epithelial cell
[6] = tested on: Cystic fibrosis transmembrane conductance regulator (Homo sapiens), P13569 [F508del]; experiment: Activity at CFTR F508del mutant (unknown origin) expressed in Fischer rat thyroid epithelial cells co-expressing YFP-H148Q/I152L assessed as forskolin/PG-01-induced increase in conductance reversible effect at 2.5 to 20 uM after 16 to 20 mins by conductance corrector assay; assay type: cell-based; settings: Epithelial cell
[7] = tested on: Cystic fibrosis transmembrane conductance regulator (Homo sapiens), P13569 [F508del]; experiment: Activity at CFTR F508del mutant (unknown origin) expressed in Fischer rat thyroid epithelial cells co-expressing YFP-H148Q/I152L assessed as loss of baseline transepithelial resistance at 10 uM after 16 to 20 mins by conductance corrector assay; assay type: cell-based; settings: Epithelial cell

Sequence of Cystic fibrosis transmembrane conductance regulator (Homo sapiens), P13569 [F508del] (P13569 as listed by the source): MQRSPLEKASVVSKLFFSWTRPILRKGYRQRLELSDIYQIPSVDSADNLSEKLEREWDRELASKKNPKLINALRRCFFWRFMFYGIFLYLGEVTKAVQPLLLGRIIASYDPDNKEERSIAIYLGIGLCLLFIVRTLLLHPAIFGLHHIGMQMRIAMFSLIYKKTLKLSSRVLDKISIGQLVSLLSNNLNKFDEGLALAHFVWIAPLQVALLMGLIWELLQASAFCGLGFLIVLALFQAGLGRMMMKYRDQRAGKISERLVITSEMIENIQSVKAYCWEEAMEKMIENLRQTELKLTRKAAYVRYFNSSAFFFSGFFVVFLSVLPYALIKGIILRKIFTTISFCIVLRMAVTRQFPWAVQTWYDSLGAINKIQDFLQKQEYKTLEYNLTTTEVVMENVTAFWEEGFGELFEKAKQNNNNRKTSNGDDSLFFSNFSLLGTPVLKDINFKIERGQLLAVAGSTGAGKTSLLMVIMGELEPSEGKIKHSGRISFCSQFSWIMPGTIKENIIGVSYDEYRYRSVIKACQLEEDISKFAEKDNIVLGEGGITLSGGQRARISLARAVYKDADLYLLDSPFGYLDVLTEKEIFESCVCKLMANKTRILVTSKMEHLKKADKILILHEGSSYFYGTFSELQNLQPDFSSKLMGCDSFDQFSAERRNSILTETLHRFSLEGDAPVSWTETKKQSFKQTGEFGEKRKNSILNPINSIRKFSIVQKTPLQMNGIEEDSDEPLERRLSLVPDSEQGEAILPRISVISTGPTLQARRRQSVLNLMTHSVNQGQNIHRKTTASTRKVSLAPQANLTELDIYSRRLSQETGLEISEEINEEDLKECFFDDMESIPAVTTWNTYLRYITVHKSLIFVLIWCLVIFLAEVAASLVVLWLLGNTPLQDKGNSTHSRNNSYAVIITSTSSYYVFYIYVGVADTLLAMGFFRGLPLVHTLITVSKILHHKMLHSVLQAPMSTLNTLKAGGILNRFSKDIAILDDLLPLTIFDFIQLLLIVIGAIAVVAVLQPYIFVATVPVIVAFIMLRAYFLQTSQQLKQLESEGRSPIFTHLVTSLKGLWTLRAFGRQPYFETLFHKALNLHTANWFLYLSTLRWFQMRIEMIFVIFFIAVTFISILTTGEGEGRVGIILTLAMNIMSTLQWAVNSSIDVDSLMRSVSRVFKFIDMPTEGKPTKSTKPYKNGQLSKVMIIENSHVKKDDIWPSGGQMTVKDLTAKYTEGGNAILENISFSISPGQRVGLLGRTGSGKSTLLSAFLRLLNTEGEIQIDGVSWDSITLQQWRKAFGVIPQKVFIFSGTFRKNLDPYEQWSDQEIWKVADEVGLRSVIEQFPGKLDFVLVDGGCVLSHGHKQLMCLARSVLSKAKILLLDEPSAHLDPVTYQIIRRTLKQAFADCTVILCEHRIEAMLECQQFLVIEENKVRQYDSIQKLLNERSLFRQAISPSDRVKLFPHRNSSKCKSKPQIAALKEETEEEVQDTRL

Activity [1] | Activity [2] | Activity [3] | Activity [4] | Activity [5] | Activity [6] | Activity [7] | Compound | Activity (HepG2)
Active | Active | Active | inactive |  |  |  | C[C@@H]1OC2=C(C(=O)C3(O)C(C2)N2C(=O)[C@@]45SSS[C@@]2(C(=O)N4[C@H]2Nc4ccccc4C2(O)[C@H]5O)[C@@H]3O)C1(C)C (some centres undefined) | Toxic
 |  |  |  | inactive | inactive |  | CS[C@]12C(=O)N3[C@H]4Nc5ccccc5C4(O)[C@@H](O)[C@@]3(SC)C(=O)N1C1CC3=C(C(=O)C1(O)[C@H]2O)C(C)(C)[C@H](C)O3 (some centres undefined) | Non-toxic
 |  |  |  |  |  | Active | COc1ccc(Cl)cc1Nc1nc(-c2sc(NC(=O)C(C)(C)C)nc2C)cs1 | 
Active | Active | Active | inactive |  |  |  | C[C@@H]1OC2=C(C(=O)C3(O)C(C2)N2C(=O)[C@@]45SS[C@@]2(C(=O)N4[C@H]2Nc4ccccc4C2(O)[C@H]5O)[C@@H]3O)C1(C)C (some centres undefined) | Toxic
